# From patent US11110149B2, “Method for predicting and monitoring the efficacy of low-dose IL-2 and hydroxychloroquine therapy in autoimmune diseases and its long-term use in autoimmune-related conditions” (KSL BIOMEDICAL INC., priority 2019, dated 2021)
# Tests used:
# SLE and/or pSS = assay: Double-blinded trial of IL-2 plus HCZ regimen: tolerability; type: in vivo, human; conditions: 1 million IU IL-2 SC every other day and HCZ 200 mg Bid PO every day
# Sjögren patients = conditions: 120 Sjögren patients, vs placebo, after 6 months of therapy; cited from earlier work
# lupus patients = conditions: systematic review, high level of evidence; cited from earlier work
structure (smiles),measurement,setting,value
CCN(CCO)CCCC(C)Nc1ccnc2cc(Cl)ccc12 (stereo not shown) [hydroxychloroquine],Tolerability of regimen,SLE and/or pSS,well tolerated
same,"Primary symptoms of dryness, pain, or fatigue",Sjögren patients,no significant improvement
same,Decrease of mortality rates in lupus patients,lupus patients,at least 50%
same,Lupus flares,lupus patients,decreases lupus flares
